The structures appear in SMILES notation. Where two headings read alike, the source gives them in different places.

Among the data in patent publication US20230233569A1 (Revolution Medicines, Inc., priority 2020, published 2023) are IC50 values, retold here.

The test system of one assay is NCI-H358 (K-Ras G12C). Briefly: CellTiter-Glo cell viability assay, 5-day treatment. It counts as cell-based. The following applies: Homo sapiens, NCI-H358, 120 h. The essentials: (§1)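 Compounds were dispensed directly onto seeded cells and incubated for 5 days, then plates were equilibrated to room temperature for about 30 minutes before luminescence reading. Signals were expressed as percent of the mean DMSO control and fitted with a four-parameter logistic curve.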
Background: ATP-based viability assays read luminescence as a measure of living cells.

A further assay relates to Capan-1 (K-Ras G12V). Described as above. The following applies: Homo sapiens, CAPAN-1, 120 h. It is filed as cell-based. The essentials: as §1
Another assay deals with KRAS G13D (Homo sapiens, UniProt P01116+P62937, G13D). In words: Disruption of BRAF RBD interaction with Ras (FRET / MOA assay, with Cyclophilin A). It is filed as biochemical. In outline:
(§2)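 TR-FRET: nucleotide-loaded K-Ras mutant or WT with Cyclophilin A and BRAF RBD, compound 10-point 3-fold from 30 μM final, 3 h at 25° C, then anti-His Eu (10 nM) and anti-GST APC (50 nM) for 1.5 h. Decreased FRET ratio versus DMSO gives IC50.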

A further assay addresses KRAS G12S (Homo sapiens, UniProt P01116+P62937, G12S). The description is as above. It is filed as biochemical. The essentials:
as §2

For another assay, the target named is KRAS G12C (Homo sapiens, UniProt P01116+P62937, G12C). The assay is described as above. It is filed as biochemical. In outline: as §2
For a further assay, the target named is KRAS G12V (Homo sapiens, UniProt P01116+P62937, G12V). The description is as above. It is filed as biochemical. The essentials: as §2
The next assay concerns the target KRAS G12D (Homo sapiens, UniProt P01116+P62937, G12D). Described as above. It is filed as biochemical. In outline:
as §2

A further assay addresses KRAS WT (Homo sapiens, UniProt P01116+P62937). Described as above. It is filed as biochemical. In outline:
as §2

In the next assay the target is KRAS G13C (Homo sapiens, UniProt P01116+P62937, G13C). The assay is described as above. It counts as biochemical. The essentials: as §2
The target of another assay is NRAS G12C (Homo sapiens, UniProt P01111+P62937, G12C). The description is as above. It is filed as biochemical.
The mark [1] stands for this setting: 5-day treatment, read-out: H358 Cell Viability assay data (K-Ras G12C, IC50).
[2] abbreviates: 5-day treatment, read-out: Capan-1 Cell Viability assay data (K-Ras G12V, IC50).
Where [3] appears, read: KRAS G13D FRET data IC50, KRAS G13D.
The mark [4] stands for this setting: KRAS G12V FRET data IC50, KRAS G12V.
Where [5] appears, read: KRAS WT FRET data IC50, KRAS WT.
The mark [6] stands for this setting: NRAS G12C FRET data IC50, NRAS G12C.
Setting [7] is: KRAS G13D, read-out: KRAS G13D FRET data IC50.
The mark [8] stands for this setting: read-out: KRAS G12S FRET data, IC50.
Where [9] appears, read: read-out: KRAS G12C FRET data, IC50.
[10] abbreviates: KRAS G12V, read-out: KRAS G12V FRET data IC50.
Setting [11] is: read-out: KRAS G12D FRET data, IC50.
The mark [12] stands for this setting: KRAS WT, read-out: KRAS WT FRET data IC50.
Where [13] appears, read: read-out: KRAS G13C FRET data, IC50.
Where [14] appears, read: NRAS G12C, read-out: NRAS G12C FRET data IC50.

Sequence of KRAS G13D (P01116 1-169 isoform P01116-2 G13D limits assumed): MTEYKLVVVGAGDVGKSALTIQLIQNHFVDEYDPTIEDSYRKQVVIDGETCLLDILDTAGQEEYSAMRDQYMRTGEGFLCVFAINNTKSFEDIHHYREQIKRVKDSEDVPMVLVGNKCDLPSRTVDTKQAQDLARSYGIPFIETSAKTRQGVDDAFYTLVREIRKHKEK
Sequence of KRAS G13D (P62937 whole entry): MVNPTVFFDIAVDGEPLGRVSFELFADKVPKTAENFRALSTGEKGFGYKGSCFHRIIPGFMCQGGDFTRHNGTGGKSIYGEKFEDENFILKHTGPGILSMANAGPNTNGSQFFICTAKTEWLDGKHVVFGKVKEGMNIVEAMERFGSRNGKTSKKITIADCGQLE
Sequence of KRAS G13C (P01116 1-169 isoform P01116-2 G13C): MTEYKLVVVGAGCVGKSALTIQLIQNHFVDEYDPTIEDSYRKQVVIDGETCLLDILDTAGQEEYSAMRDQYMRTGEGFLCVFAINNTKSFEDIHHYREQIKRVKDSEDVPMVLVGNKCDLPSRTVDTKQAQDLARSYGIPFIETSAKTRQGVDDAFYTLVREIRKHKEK
Sequence of KRAS G13C (P62937 whole entry): as the sequence (P62937 whole entry) above
Sequence of KRAS WT (P01116 1-169 isoform P01116-2 limits assumed): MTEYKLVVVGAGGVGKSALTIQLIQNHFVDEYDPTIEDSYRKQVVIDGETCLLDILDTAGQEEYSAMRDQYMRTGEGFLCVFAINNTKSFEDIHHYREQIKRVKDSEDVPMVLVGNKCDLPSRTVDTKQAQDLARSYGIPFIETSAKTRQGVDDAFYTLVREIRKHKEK
Sequence of KRAS WT (P62937 whole entry): as the sequence (P62937 whole entry) above
Sequence of KRAS G12V (P01116 1-169 isoform P01116-2 G12V limits assumed): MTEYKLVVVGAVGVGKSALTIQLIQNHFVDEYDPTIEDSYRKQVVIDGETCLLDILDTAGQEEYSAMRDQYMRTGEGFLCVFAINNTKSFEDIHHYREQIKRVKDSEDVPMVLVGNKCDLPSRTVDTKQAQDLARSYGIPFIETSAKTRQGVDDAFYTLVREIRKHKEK
Sequence of KRAS G12V (P62937 whole entry): as the sequence (P62937 whole entry) above
Sequence of NRAS G12C (P01111 whole entry G12C): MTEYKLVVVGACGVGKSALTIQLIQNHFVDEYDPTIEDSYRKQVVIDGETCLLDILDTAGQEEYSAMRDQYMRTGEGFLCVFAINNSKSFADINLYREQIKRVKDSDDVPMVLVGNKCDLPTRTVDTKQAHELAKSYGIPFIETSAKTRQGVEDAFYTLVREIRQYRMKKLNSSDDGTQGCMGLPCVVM
Sequence of NRAS G12C (P62937 whole entry): as the sequence (P62937 whole entry) above
Sequence of KRAS G12S (P01116 1-169 isoform P01116-2 G12S limits assumed): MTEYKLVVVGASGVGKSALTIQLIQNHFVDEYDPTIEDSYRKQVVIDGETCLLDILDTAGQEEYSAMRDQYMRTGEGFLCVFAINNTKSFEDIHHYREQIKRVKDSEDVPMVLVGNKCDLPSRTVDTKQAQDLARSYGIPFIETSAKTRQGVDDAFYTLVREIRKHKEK
Sequence of KRAS G12S (P62937 whole entry): as the sequence (P62937 whole entry) above
Sequence of KRAS G12C (P01116 1-169 isoform P01116-2 G12C): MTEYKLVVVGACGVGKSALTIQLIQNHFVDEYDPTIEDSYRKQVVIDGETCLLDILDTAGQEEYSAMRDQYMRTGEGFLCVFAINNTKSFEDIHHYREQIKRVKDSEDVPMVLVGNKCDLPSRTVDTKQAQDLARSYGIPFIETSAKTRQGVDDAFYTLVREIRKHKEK
Sequence of KRAS G12C (P62937 whole entry): as the sequence (P62937 whole entry) above
Sequence of KRAS G12D (P01116 1-169 isoform P01116-2 G12D limits assumed): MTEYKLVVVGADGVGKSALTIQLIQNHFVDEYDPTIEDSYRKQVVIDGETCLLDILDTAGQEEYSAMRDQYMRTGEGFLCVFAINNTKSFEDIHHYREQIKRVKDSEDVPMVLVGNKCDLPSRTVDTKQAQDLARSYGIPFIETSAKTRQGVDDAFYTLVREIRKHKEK
Sequence of KRAS G12D (P62937 whole entry): as the sequence (P62937 whole entry) above

A word on the IC50: it is the point on the concentration scale where inhibition reaches its midpoint. In the case of `CCn1c(-c2cnccc2COC)c2c3cc(ccc31)-c1cc(O)cc(c1)C[C@H](NC(=O)[C@H](C(C)C)N(C)C(=O)[C@H]1CCCO1)C(=O)N1CCC[C@H](N1)C(=O)OCC(C)(C)C2` [Example A90], the IC50 was in the range of 0.1 to 1 µM with NCI-H358 (K-Ras G12C) (setting [1]); 0.1 to 1 µM with Capan-1 (K-Ras G12V) (setting [2]); 100 to 1000 nM at KRAS G13D (setting [3]); 100 to 1000 nM against KRAS G12S (KRAS G12S FRET data, IC50); 100 to 1000 nM against KRAS G12C (KRAS G12C FRET data, IC50); 100 to 1000 nM on KRAS G12V (setting [4]). In addition, the 50% inhibitory concentration (IC50) fell in the range of 1000 to 10000 nM on KRAS G12D (KRAS G12D FRET data, IC50); 100 to 1000 nM on KRAS WT (setting [5]); 100 to 1000 nM on KRAS G13C (KRAS G13C FRET data, IC50); 100 to 1000 nM against NRAS G12C (setting [6]).

For `CCn1c(-c2cnccc2COC)c2c3cc(ccc31)-c1cc(O)cc(c1)C[C@H](NC(=O)[C@H](C(C)C)N(C)C(=O)[C@@H]1NC[C@@H]3C[C@@H]31)C(=O)N1CCC[C@H](N1)C(=O)OCC(C)(C)C2` [Example A78], the IC50 with NCI-H358 (K-Ras G12C) (read-out: H358 Cell Viability assay data (K-Ras G12C, IC50, uM), 5-day treatment) fell in the range of 0.1 to 1 µM; in the assay with Capan-1 (K-Ras G12V) (read-out: Capan-1 Cell Viability assay data (K-Ras G12V, IC50, uM)), 1 to 10 µM; against KRAS G13D (setting [3]), 100 to 1000 nM; against KRAS G12S (KRAS G12S FRET data, IC50) it was 100 to 1000 nM; at KRAS G12C (KRAS G12C FRET data, IC50), 100 to 1000 nM; at KRAS G12V (setting [4]), 100 to 1000 nM. For the same compound, the IC50 at KRAS G12D (KRAS G12D FRET data, IC50) lay within 100 to 1000 nM; at KRAS WT (setting [5]), 100 to 1000 nM; against KRAS G13C (KRAS G13C FRET data, IC50), 10 to 100 nM; on NRAS G12C (setting [6]) it was 100 to 1000 nM.

Turning to `CCn1c(-c2cccnc2[C@H](C)OC)c2c3cc(ccc31)-c1cc(O)cc(c1)C[C@H](NC(=O)[C@H](C(C)C)N(C)C(=O)O[C@H]1CCOC1)C(=O)N1CCC[C@H](N1)C(=O)OCC(C)(C)C2` [Example A209], the IC50 in the assay with NCI-H358 (K-Ras G12C) (setting [1]) fell in the range of 0.1 to 1 µM; in the assay on Capan-1 (K-Ras G12V) (setting [2]), 0.1 to 1 µM; at KRAS G13D (setting [7]), 100 to 1000 nM; on KRAS G12S (setting [8]), 100 to 1000 nM; on KRAS G12C (setting [9]), 100 to 1000 nM; at KRAS G12V (setting [10]), 100 to 1000 nM. Also, the IC50 on KRAS G12D (setting [11]), at KRAS WT (setting [12]), at KRAS G13C (setting [13]) and at NRAS G12C (setting [14]) was 100 to 1000 nM in each case.

As for `CCn1c(-c2cccnc2[C@H](C)OC)c2c3cc(ccc31)-c1cc(O)cc(c1)C[C@H](NC(=O)[C@H](C(C)C)N(C)C(=O)[C@H]1CCN[C@H]1C)C(=O)N1CCC[C@H](N1)C(=O)OCC(C)(C)C2` [Example A127], the half-inhibitory concentration (IC50) was 1 to 10 µM in the assay with NCI-H358 (K-Ras G12C) (setting [1]); more than 10 µM in the assay on Capan-1 (K-Ras G12V) (setting [2]); 10 to 100 nM on KRAS G13D (setting [7]); 10 to 100 nM on KRAS G12S (setting [8]); 10 to 100 nM at KRAS G12C (setting [9]); 100 to 1000 nM at KRAS G12V (setting [10]). The IC50 on KRAS G12D (setting [11]), at KRAS WT (setting [12]), on KRAS G13C (setting [13]) and on NRAS G12C (setting [14]) was 10 to 100 nM in each case.

Regarding `CCn1c(-c2cnccc2COC)c2c3cc(ccc31)-c1cc(O)cc(c1)C[C@H](NC(=O)[C@H](C(C)C)N(C)C(=O)[C@H]1CCN(C(=O)OC)C1)C(=O)N1CCC[C@H](N1)C(=O)OCC(C)(C)C2` [Example A11, methyl (3S)-3-{[(1S)-1-{[(8S,14S)-22-ethyl-4-hydroxy-21-[4-(methoxymethyl)pyridin-3-yl]-18,18-dimethyl-9,15-dioxo-16-oxa-10,22,28-triazapentacyclo[18.5.2.1^2,6.1^10,14.0^23,27]nonacosa-1(26),2,4,6(29),20,23(27),24-heptaen-8-yl]carbamoyl}-2-methylpropyl](methyl)carbamoyl}pyrrolidine-1-carboxylate], the IC50 with NCI-H358 (K-Ras G12C) (setting [1]) fell in the range of 0.1 to 1 µM; with Capan-1 (K-Ras G12V) (setting [2]) it was 0.1 to 1 µM; against KRAS G13D (setting [3]), 100 to 1000 nM; against KRAS G12S (KRAS G12S FRET data, IC50), 100 to 1000 nM; against KRAS G12C (KRAS G12C FRET data, IC50), 10 to 100 nM; against KRAS G12V (setting [4]) it was 10 to 100 nM. Besides, the IC50 lay within 1000 to 10000 nM against KRAS G12D (KRAS G12D FRET data, IC50); 100 to 1000 nM against KRAS WT (setting [5]); 100 to 1000 nM against KRAS G13C (KRAS G13C FRET data, IC50); 10 to 100 nM against NRAS G12C (setting [6]).

In the case of `CCn1c(-c2cccnc2[C@H](C)OC)c2c3cc(ccc31)-c1csc(n1)C[C@H](NC(=O)[C@H](C(C)C)N(C)C(=O)N1C[C@H]3CN(C)C[C@H]3C1)C(=O)N1CCC[C@H](N1)C(=O)OCC(C)(C)C2` [Example A313], the IC50 is 0.01 to 0.1 µM with NCI-H358 (K-Ras G12C) (setting [1]); 0.01 to 0.1 µM with Capan-1 (K-Ras G12V) (setting [2]); 100 to 1000 nM at KRAS G13D (setting [7]); 100 to 1000 nM at KRAS G12S (setting [8]); 100 to 1000 nM at KRAS G12C (setting [9]); 100 to 1000 nM at KRAS G12V (setting [10]). In addition, the IC50 at KRAS G12D (setting [11]) was 100 to 1000 nM; on KRAS WT (setting [12]) it was 100 to 1000 nM; at KRAS G13C (setting [13]), 100 to 1000 nM; on NRAS G12C (setting [14]), 10 to 100 nM.
